Results as given in US20260256747A1, “ARYL-TRIAZOLYL AND RELATED GPR84 ANTAGONISTS AND USES THEREOF” (Liminal BioSciences Limited, priority 2022, published 2026).

Biological target: T1, human GPR84 receptor (Homo sapiens, UniProt Q9NQS5)
T1 construct: host or cells: HEK293 cells, transient transfection
Experiment: Gαi biosensor BRET assay in HEK293 cells transfected with GPR84, stimulated with the GPR84 agonist ZQ-16
Assay type: cell-based
Conditions: 200 nmol/L ZQ-16; for inhibition at 10 µM / inhibition at 2 µM: HEK293, single concentration; for inhibition at 10 µM: concentration class F = 10 μM; for inhibition at 2 µM: concentration class A = 2 μM
Text: Background—The following assays can be used for determination of GPR84 activation in living HEK293 cells. The Gαi BRET biosensor (Gagnon et al., 2018; Gales et al., 2006. Nat Struct Mol Biol. 13, 778-86; Saulieres et al., 2012. Nat Chem Biol. 8, 622-30) allows to directly monitor GPR84-mediated activation of Gαi. The Gαi biosensor consists of a Rluc8-tagged Gαi2 subunit, a GFP10-tagged Gγ2 subunit, and an untagged GB1. Agonist stimulation and GPR84 activation triggers a physical separation between the RLuc8-Gαi donor and the GFP10-Gγ2 acceptor, resulting in a decrease in BRET signal whose amplitude is correlated to ligand efficacy (Gales et al., 2006). Moreover, signaling functions of GPCRs are tightly regulated by endocytosis, the targeting of receptors to endosomes and their sorting to lysosomes or recycling to the plasma membrane. The early endosomes (EEs) trafficking assay (Namkung et al., 2016. Nat Commun. 7, 12178) uses Rluc8-tagged GPR84 and Renilla GFP (rGFP) attached to the FYVE domain from human endofin/zinc finger FYVE domain-containing protein 16, which binds phosphatidylinositol 3-phosphate in EEs. Agonist stimulation of GPR84-Rluc8 leads to trafficking of the receptor to EEs, and ensuing increase of the donor concentration relative to the rGFP-FYVE acceptor anchored in the same cellular compartment, and thus results in an increase in BRET signal.
Plasmids—The cDNA clones for human GPR84 receptor, human Gαi2, Gβ1, and Gγ2 were obtained from the cDNA Resource Center (www.cdna.org). GFP10 (F64L, S147P, S202F and H231L variant of Aequorea victoria Green Fluorescent Protein) gBlocks gene fragments (Integrated DNA Technologies, IA) and linker were inserted in frame at the N-terminus of human Gγ2. Rluc8 (A^55T, Cl24A, S130A, K136R, A^143M, M185V, M253L, and S287L variant of the Renilla reniformis luciferase) gBlocks gene fragment was inserted with linkers in frame in between residues 91 and 92 of Gαi2 or at the C-terminus of GPR84. The FYVE domain from human endofin (residues Q739 to K806) attached in frame at the C terminus of a humanized Renilla GFP (rGFP), were synthesized as gBlocks gene fragments.
Bioluminescence Resonance Energy Transfer (BRET) Measurement-HEK293 cells were transfected with GPR84-Rluc8 and rGFP-FYVE for the EEs trafficking biosensor or with GPR84, Gαi2-Rluc8, GFP10-Gγ2, and Gβ1 for the Gαi biosensor. The following day, transiently transfected cells were seeded in 96-well white clear bottom microplates coated with poly-D-lysine and left in culture for 24 hours. Cells were washed once with Tyrode's buffer (140 mmol/L NaCl, 1 mmol/L CaCl2, 2.7 mmol/L KCl, 0.49 mmol/L MgCl2, 0.37 mmol/L NaH2PO4, 5.6 mmol/L glucose, 12 mmol/L NaHCO3, and 25 mmol/L HEPES, pH 7.5) before performing assays in Tyrode's buffer. Test compounds were incubated with cells for 5 (Gai) or 15 (EEs) minutes at 37° C. before addition of 200 nmol/L of the GPR84 agonist ZQ-16 (2-(Hexylthio)-6-hydroxy-4 (3H)-pyrimidinone) for 5 minutes at room temperature (Gai) or 30 minutes at 37° C. (EEs). The Rluc8 substrate coelenterazine 400A (Prolume, Lakeside, AZ) was added at a final concentration of 5 μmol/L and BRET readings were collected using an Infinite M1000 microplate reader (Tecan, Morrisville, NC). BRET2 readings between Rluc8 and GFP10 or rGFP were collected by sequential integration of the signals detected in the 370 to 450 nm (Rluc8) and 510 to 540 nm (GFP10, rGFP) windows. The BRET signal was calculated as the ratio of light emitted by acceptor (GFP10, rGFP) over the light emitted by donor (Rluc8). The values were corrected to net BRET by subtracting the background BRET signal obtained in cells transfected with Rluc8 constructs alone. Ligand-promoted net BRET values were calculated by subtracting vehicle-induced net BRET from ligand-induced net BRET.

T1 sequence (Q9NQS5 whole entry): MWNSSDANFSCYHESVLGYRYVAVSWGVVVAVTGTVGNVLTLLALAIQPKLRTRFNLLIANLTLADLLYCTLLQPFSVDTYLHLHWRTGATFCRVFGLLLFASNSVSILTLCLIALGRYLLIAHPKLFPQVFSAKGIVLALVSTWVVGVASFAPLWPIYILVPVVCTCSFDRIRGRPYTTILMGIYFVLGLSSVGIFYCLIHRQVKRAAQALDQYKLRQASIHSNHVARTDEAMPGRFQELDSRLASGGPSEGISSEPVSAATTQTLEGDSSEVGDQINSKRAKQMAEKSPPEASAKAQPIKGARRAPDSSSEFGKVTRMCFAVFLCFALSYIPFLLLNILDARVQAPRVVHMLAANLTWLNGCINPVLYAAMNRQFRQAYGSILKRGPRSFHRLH

inhibition at 10 µM	IC50	inhibition at 2 µM	SMILES
50 to 75%	–	–	Cn1cncc1-c1cnc(-c2cn(CC3OCC4(CC4)CO3)nn2)c(OC2CC2)c1 [Compound I-230]
–	≤ 300 nM	> 75%	c1nc(-c2cn(CC3OCC4(CC4)CO3)nn2)c(OC2CC2)cc1-c1nnn[nH]1 [Compound I-205]
≤ 25%	–	–	CN(C(=O)c1cnc(-c2cn(CC3OCC4(CC4)CO3)nn2)c(OC2CC2)c1)C1CC1 [Compound I-59, 6-(1-((5,7-dioxaspiro[2.5]octan-6-yl)methyl)-1H-1,2,3-triazol-4-yl)-5-cyclopropoxy-N-cyclopropyl-N-methylnicotinamide]
≤ 25%	–	–	CN(C)C(=O)Cn1cc(-c2ncc(C#CC3CC3)cc2OC2CC2)cn1 [Compound I-216]
25 to 50%	–	–	CN(C)C(=O)CCn1cc(-c2ncc(C#CC3CC3)cc2OC2CC2)nn1 [Compound I-213]
≤ 25%	–	–	CN(c1ccc(C#CC2CC2)cc1)c1cn(CC2OCC(C)(C)CO2)nn1 [Compound I-149]
25 to 50%	–	–	C(#CC1CC1)c1ccc(-c2nnc(-c3cn(CC4OCC5(CC5)CO4)nn3)o2)cc1 [Compound I-254]
–	≤ 300 nM	> 75%	CC1(C)COC(Cn2cc(-c3ncc(C#CCNC4CC(F)(F)C4)cc3OC3CC3)nn2)OC1 [Compound I-38]
> 75%	300 to 1000 nM	–	CC1(C)COC(Cn2cc(-c3ncc(C#N)cc3OC3CC3)nn2)OC1 [Compound I-14]
–	≤ 300 nM	> 75%	CN(C)c1cc(N2CC3(COC3)C2)c(F)cc1-c1cn(CC2OCC3(CC3)CO2)nn1 [Compound I-25]
–	≤ 300 nM	> 75%	C(#CC1CC1)c1cnc(-c2cn(C[C@H]3CCCCO3)cn2)c(OC2CC2)c1 [Compound I-54]
25 to 50%	–	–	O=C(Cn1cc(-c2ncc(-c3nnn[nH]3)cc2OC2CC2)nn1)N1CCCC1 [Compound I-233]
–	≤ 300 nM	> 75%	OC1(C#Cc2cnc(-c3cn(CC4OCC5(CC5)CO4)nn3)c(OC3CC3)c2)CC1 [Compound I-35]
25 to 50%	–	–	Cc1cc(N2CCN(Cc3ccccn3)CC2)ccc1-c1cn(CC(=O)N(C)C)cn1 [Compound I-62]
25 to 50%	–	–	N=C(N)c1cnc(-c2cn(CC3OCC4(CC4)CO3)nn2)c(OC2CC2)c1 [Compound I-265]
> 75%	300 to 1000 nM	–	c1n[nH]cc1-c1cnc(-c2cn(CC3OCC4(CC4)CO3)nn2)c(OC2CC2)c1 [Compound I-236]
50 to 75%	–	–	CCCOc1cc(C#CC2CC2)cnc1-c1cn(CC(=O)N(C)C)nn1 [Compound I-221]
–	–	≤ 25%	Cc1ccc(C2CC2)nc1-c1cn(CC2OCC(C)(C)CO2)nn1 [Compound I-11]
–	–	≤ 25%	O=C(Cn1cc(-c2nc(O)c(C#CC3CC3)cc2OC2CC2)nn1)N1CCCC1 [Compound I-249]
≤ 25%	–	–	COc1ccc(C#Cc2cnn(CC3OCC(C)(C)CO3)n2)cc1 [Compound I-46]
≤ 25%	–	–	CN(C)C(=O)COc1cnc(-c2cn(CC(=O)N(C)C)nn2)c(OC2CC2)c1 [Compound I-71]
> 75%	–	–	O=C(Cn1cc(-c2ncc(C#CC3CC3)cc2OC2CC2)nn1)N1C[C@@H](O)[C@@H](O)C1 [Compound I-248]
≤ 25%	–	–	O=C(Cn1cncc1-c1ncc(C#CC2CC2)cc1OC1CC1)N1CCCC1 [Compound I-243]
25 to 50%	–	–	c1ccc(CN2CCN(c3cnc(-c4cn(CC5OCC6(CC6)CO5)cn4)c(OC4CC4)c3)CC2)nc1 [Compound I-211]

inhibition at 10 µM	IC50	inhibition at 2 µM	SMILES
> 75%	300 to 1000 nM	–	Cc1cc(C#CC2CC2)ccc1-c1nnc(-c2cn(CC3OCC4(CC4)CO3)nn2)o1 [Compound I-220]
> 75%	–	–	CN(C)C(=O)CNc1cnc(-c2cn(CC3OCC4(CC4)CO3)nn2)c(OC2CC2)c1 [Compound I-73]
> 75%	–	–	CC(O)C1CN(c2ccc(-c3cn(CC4OCC5(CC5)CO4)nn3)c(N(C)C)c2)C1 (stereo not shown) [Compound I-5, 1-(1-(4-(1-(5,7-dioxaspiro[2.5]octan-6-ylmethyl)-1H-1,2,3-triazol-4-yl)-3-(dimethylamino)phenyl)azetidin-3-yl)ethanol]
–	–	> 75%	CC1(C)COC(Cn2cc(-c3ncc(C#CCN4CC(C)(CO)C4)cc3OC3CC3)nn2)OC1 [Compound I-143]
> 75%	≤ 300 nM	–	Cn1cc(-c2cnc(-c3cn(CC4OCC5(CC5)CO4)nn3)c(OC3CC3)c2)cn1 [Compound I-239]
≤ 25%	–	–	C(#CC1CC1)c1cnc(-c2cncn2C[C@H]2CCCCO2)c(OC2CC2)c1 [Compound I-53]
–	≤ 300 nM	> 75%	Cn1ccc(-c2cnc(-c3cn(CC4OCC5(CC5)CO4)nn3)c(OC3CC3)c2)n1 [Compound I-238]
25 to 50%	–	–	CN(c1cccc(C#N)c1)c1cn(CC2OCC(C)(C)CO2)nn1 [Compound I-160]
> 75%	1000 to 3000 nM	–	CN(C)C(=O)Cn1cc(-c2ccc(N3CC(C)(CO)C3)cc2N(C)C)nn1 [Compound I-24]
–	≤ 300 nM	> 75%	CC(O)C1(C)CN(c2ccc(-c3cn(CC4OCC5(CC5)CO4)nn3)c(N(C)C)c2)C1 (stereo not shown) [Compound I-30]
–	–	> 75%	C(#CC1CCC1)c1cnc(-c2cn(CC3OCC4(CC4)CO3)nn2)c(OC2CC2)c1 [Compound I-6]
> 75%	300 to 1000 nM	–	[2H]C([2H])([2H])N(c1cc(N2CC(C)(CO)C2)ccc1-c1cn(CC2OCC3(CC3)CO2)nn1)C([2H])([2H])[2H] [Compound I-55]
50 to 75%	–	–	Cn1nncc1-c1cnc(-c2cn(CC3OCC4(CC4)CO3)nn2)c(OC2CC2)c1 [Compound I-225]
25 to 50%	–	–	CNC(=O)Cn1cc(-c2ncc(C#CC3CC3)cc2OC2CC2)nn1 [Compound I-67]
≤ 25%	–	–	Cn1nnnc1-c1cnc(-c2cn(CC3OCC4(CC4)CO3)nn2)c(OC2CC2)c1 [Compound I-222]
–	≤ 300 nM	> 75%	C(#Cc1cnc(-c2cn(CC3OCC4(CC4)CO3)nn2)c(OC2CC2)c1)CN1CC2(CC2)C1 [Compound I-9]
> 75%	300 to 1000 nM	–	CCc1cc(C#CCN)ccc1-c1cn(CC2OCC(C)(C)CO2)nn1 [Compound I-2]
25 to 50%	–	–	N#Cc1cnc(-c2cn(CC(=O)N3CCCC3)nn2)c(OC2CC2)c1 [Compound I-241]
50 to 75%	–	–	CNC(=O)c1cnc(-c2cn(CC3OCC4(CC4)CO3)nn2)c(OC2CC2)c1 [Compound I-66]
> 75%	–	–	Fc1cc(C#CC2CC2)ccc1-c1nnc(-c2cn(CC3OCC4(CC4)CO3)nn2)o1 [Compound I-257]
–	–	≤ 25%	CN(C)C(=O)Cn1cc(-c2nc(O)c(C#CC3CC3)cc2OC2CC2)nn1 [Compound I-251]
–	≤ 300 nM	> 75%	Cn1ncc(-c2cnc(-c3cn(CC4OCC5(CC5)CO4)nn3)c(OC3CC3)c2)n1 [Compound I-226]
–	–	≤ 25%	Cc1cc(C#CC2CC2)ccc1-c1cn(Cc2cscn2)nn1 [Compound I-19]
50 to 75%	–	–	CC1(C)COC(Cn2cc(-c3ncc(CC#N)cc3OC3CC3)nn2)OC1 [Compound I-40]
